In patent US8618284B2 (Wyeth LLC, priority 2008, dated 2013):
Blank lines part the entries; values can stand above or below the compound they belong to.

Legend:
[1] = Granulation effect on the polymorphic transformation of Form A; type: physicochemical; details: dry industrial batch of Form A; for % Form B after granulation: after industrial granulation; for % Form B prior to granulation: before industrial granulation
[2] = system: MCF-7 cell line (human breast cancer cell line); details: cited from earlier work
[3] = system: preclinical models of uterine stimulation; details: cited from earlier work
[4] = system: ovariectomized rat model of osteopenia; details: cited from earlier work
[5] = upon contact with a solvent or solvent mixture (e.g., ethyl acetate and ethanol); cited from earlier work
[6] = in some drug formulations; cited from earlier work
[7] = aqueous and organic solvent systems, Form A compared with Form B; cited from earlier work

% Form B after granulation ([1]; listed as 8.5): 0.6%
% Form B prior to granulation ([1]; listed as 8.5): 0.5%
Structure (SMILES): Cc1c(-c2ccc(O)cc2)n(Cc2ccc(OCCN3CCCCCC3)cc2)c2ccc(O)cc12 [batch 8.5]

% Form B after granulation ([1]; listed as 8.7): 0.2%
% Form B prior to granulation ([1]; listed as 8.7): 0.3%
Structure (SMILES): Cc1c(-c2ccc(O)cc2)n(Cc2ccc(OCCN3CCCCCC3)cc2)c2ccc(O)cc12 [batch 8.7]

% Form B after granulation ([1]; listed as 8.6): 0.1%
Structure (SMILES): Cc1c(-c2ccc(O)cc2)n(Cc2ccc(OCCN3CCCCCC3)cc2)c2ccc(O)cc12 [batch 8.6]

More lines, now with the values behind:

Structure (SMILES): Cc1c(-c2ccc(O)cc2)n(Cc2ccc(OCCN3CCCCCC3)cc2)c2ccc(O)cc12 [batch 8.4]
% Form B after granulation ([1]; listed as 8.4): 0.2%
% Form B prior to granulation ([1]; listed as 8.4): 0.3%

Structure (SMILES): Cc1c(-c2ccc(O)cc2)n(Cc2ccc(OCCN3CCCCCC3)cc2)c2ccc(O)cc12 [bazedoxifene acetate, 1-[4-(2-azepan-1-yl-ethoxy)-benzyl]-2-(4-hydroxy-phenyl)-3-methyl-1H-indol-5-ol acetic acid]
estrogen antagonist behaviour [2]: behaves as an estrogen antagonist
stimulation of uterine response [3]: little or no stimulation of uterine response
effect in preventing bone loss and reducing cholesterol [4]: estrogen agonist-like effect

Structure (SMILES): Cc1c(-c2ccc(O)cc2)n(Cc2ccc(OCCN3CCCCCC3)cc2)c2ccc(O)cc12 [Form A, 1-[4-(2-azepan-1-yl-ethoxy)-benzyl]-2-(4-hydroxy-phenyl)-3-methyl-1H-indol-5-ol acetic acid]
conversion of Form A to Form B [5]: can easily convert to Form B
bioavailability [6]: better bioavailability
solubility [7]: higher solubility
